target: Sigma 2 receptor; assay: The Binding affinity was evaluated using [3H]DTG -(+)-Dextrallorphan] in rat liver

| Ki [nM] | SMILES |
| --- | --- |
| 1540 | Cc1ccc(NC(=N)Nc2ccc(C)cc2)cc1 |

target: Sigma 2 receptor; assay: Binding affinity was evaluated against sigma-2 binding site in rat liver using [3H]DTG -(+)-Dextrallorphan as radioligand

| SMILES | Ki [nM] |
| --- | --- |
| CN(CCc1cccc(Br)c1)CCN1CCCC1 | 59.8 |
| CN(CCc1ccc(I)cc1)CCN1CCCC1 | 43.1 |
| CN(CCc1ccc(F)cc1)CCN1CCCC1 | 124 |
| CN(CCN1CCCC1)Cc1ccc(I)cc1 | 24.5 |
| CN(CCc1ccc(Cl)c(Cl)c1)CCN1CCCC1 | 8.1 |
| CN(CCN1CCCC1)Cc1ccccc1I | 48.2 |
| CN(CCN1CCCC1)Cc1cccc(I)c1 | 33.7 |

Now from value to compound:

| Ki [nM] | SMILES |
| --- | --- |
| 28.3 | CN(CCc1cccc(Cl)c1)CCN1CCCC1 |
| 9.1 | CN(CCc1cccc(I)c1)CCN1CCCC1 |
| 104 | CN(CCc1cccc(F)c1)CCN1CCCC1 |
| 220 | CN(CCN1CCCC1)Cc1cccc(Br)c1 |
| 32.5 | CN(CCc1ccc(Br)cc1)CCN1CCCC1 |
| 50.5 | CN(CCc1ccc(Cl)cc1)CCN1CCCC1 |

target: Sigma 2 receptor; assay: The Binding affinity was evaluated against sigma-2 binding site in rat liver using [3H]- -(+)-3-PPP

| Ki [nM] | SMILES |
| --- | --- |
| 0.34 | CN(CCc1ccc(Cl)c(Cl)c1)CCN1CCCC1 |

Reference: ChEMBL document CHEMBL1126607, “Synthesis and binding characteristics of potential SPECT imaging agents for sigma-1 and sigma-2 binding sites” (J Med Chem, 1993)
